Experimental data reported in patent publication US20090147264A1, “LABEL-FREE, REAL-TIME DETECTION SYSTEM FOR MOLECULAR INTERACTION ANALYSIS” (The University of Pittsburgh - Of the Commonwealth System …, priority 2007, published 2009).

Legend:
HMGB1 [1] = target: T1, HMGB1 (Homo sapiens, UniProt P09429); experiment: Biolayer interferometry (BLI) binding of DNA to HMGB1 coupled to a biolayer sensor; details: for Kd: HMGB1 amide-coupled to biolayer sensor, + CP = with cisplatin, read-out: Affinity to HMGB1; for effect of addition of platinum compound on DNA binding / affinity of DNA to HMGB1: platinum compound added to DNA
T1 sequence (P09429 1-215): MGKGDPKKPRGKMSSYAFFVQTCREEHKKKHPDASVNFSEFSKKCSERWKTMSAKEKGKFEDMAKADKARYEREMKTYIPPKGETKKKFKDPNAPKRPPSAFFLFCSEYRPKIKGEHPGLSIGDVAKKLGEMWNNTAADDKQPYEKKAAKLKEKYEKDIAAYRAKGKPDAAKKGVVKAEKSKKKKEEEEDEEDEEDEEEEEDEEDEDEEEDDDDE

RAGE = RAGE (Homo sapiens, UniProt Q15109); experiment: BLI binding of sRAGE to HMGB1 in the presence of DNA; details: for Kd: sRAGE binding to HMGB1 in the presence of the DNA, + CP = with cisplatin, read-out: Affinity to RAGE
HMGB1 [2] = target: HMGB1 (Homo sapiens?) (UniProt P09429); experiment: BLI; details: given as affinity, unit not stated (M assumed)

Sequence of RAGE (Q15109 23-342 limits assumed, one chain of several): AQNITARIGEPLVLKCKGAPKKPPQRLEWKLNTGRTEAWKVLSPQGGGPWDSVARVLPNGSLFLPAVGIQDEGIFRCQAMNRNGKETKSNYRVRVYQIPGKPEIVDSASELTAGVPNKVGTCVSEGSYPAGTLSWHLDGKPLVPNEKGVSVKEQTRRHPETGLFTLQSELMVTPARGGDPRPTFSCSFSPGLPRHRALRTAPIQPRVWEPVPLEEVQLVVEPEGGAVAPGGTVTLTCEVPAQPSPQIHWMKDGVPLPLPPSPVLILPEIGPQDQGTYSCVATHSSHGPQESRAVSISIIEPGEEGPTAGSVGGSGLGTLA

Compound: 5′-CCTCTCTGGACCTTCC*T*T*T*T*GGAAGGTCCAGAGA*G*G [Oligo 1]
- Kd (HMGB1 [1]): 6.6 nM
- Kd (RAGE): 8.7 nM

Compound: 5′-CTGGACCTTCC*T*T*T*T*GGAAGGTCC*A*G [Oligo 2]
- Kd (HMGB1 [1]): 33 nM
- Kd (RAGE): 4.3 nM

Compound: 5′-GTA cGA agT CCG TTC cTa GGC tTG ct-3′ (5'-GTA cGA agT CCG TTC cTa GGC tTG ct-3'; as printed in the source, key not given here) [Scrambled 2, scrambled hairpin oligonucleotide used as a control]
- Kd (HMGB1 [1]): 180 nM
- Kd (RAGE): 3.9 nM

Compound: 5′-cTC CGA CGc tCA aTG cTG GTA CGG Tat CCG TgT TAG-3′ (CTCCGACGCTCAATGCTGGTACGGTATCCGTGTTAG; chemistry not given here) [Scrambled 1, scrambled hairpin oligonucleotide used as a control]
- Kd (HMGB1 [1]): 51 nM
- Kd (RAGE): 8.7 nM

Compound: N.N.O=C([O-])C1(C(=O)[O-])CCC1.[Pt+2] [carboplatinum, carboplatin]
- effect of addition of platinum compound on DNA binding / affinity of DNA to HMGB1 (HMGB1 [1]): enhanced DNA binding

Compound: N.N.[Cl][Pt][Cl] [cisplatin]
- effect of addition of platinum compound on DNA binding / affinity of DNA to HMGB1 (HMGB1 [1]): increases the affinity
- effect of addition of platinum compound on DNA binding / affinity of DNA to HMGB1 (HMGB1 [1]; listed as cis-platinum): enhanced DNA binding
- effect of cisplatin on affinity between sRAGE and HMGB1 (RAGE; in the presence of cisplatin): No increased affinity

Compound: O=C1[O][Pt]2([NH][C@@H]3CCCC[C@H]3[NH]2)[O]C1=O [oxaliplatin]
- effect of addition of platinum compound on DNA binding / affinity of DNA to HMGB1 (HMGB1 [1]): enhanced DNA binding

Compound: Circular DNA
- Kd (HMGB1 [2]; p52 says circular DNA not measured well): 3.6 nM

Compound: Linear DNA
- Kd (HMGB1 [2]): 0.014 nM
